{"source": "paper PMC6001238", "about": "“Iterative Chemical Engineering of Vancomycin Leads to Novel Vancomycin Analogs With a High in Vitro Therapeutic Index” (Frontiers in Microbiology, 2018)", "key": {"E. faecalis VRE 6": {"system": "E. faecalis VRE 6", "test": "MIC, broth microdilution, vancomycin-resistant E. faecalis VRE 6 (VanA)", "assay_type": "cell-based, Enterococcus faecalis", "conditions": "for MIC: read-out: MIC", "in_short": "(§1)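 Read-out: lowest concentration inhibiting growth in broth microdilution, CLSI method. Water and broth-only wells acted as controls; in one case 10 μM vancomycin (final) was present with the compound.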"}, "S. aureus VRSA": {"system": "S. aureus VRSA", "test": "MIC, broth microdilution, vancomycin-resistant S. aureus (VRSA)", "assay_type": "cell-based, Staphylococcus aureus", "in_short": "as §1"}, "E. faecalis VSE 1": {"system": "E. faecalis VSE 1", "test": "MIC, broth microdilution, vancomycin-sensitive E. faecalis (VSE 1)", "assay_type": "cell-based, Enterococcus faecalis", "conditions": "for MIC: read-out: MIC", "in_short": "as §1"}, "[1]": {"system": "human T-lymphocyte (CEM) cells", "test": "Cytostatic activity, CEM cell proliferation", "assay_type": "cell-based", "conditions": "mean ± SD of three experiments; highest concentration tested 250 µM; 3 days; read-out: Toxicity (IC50) CEM", "in_short": "(§2)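 Coulter counter cell counts after 37°C culture with compound; IC50 = concentration giving 50% growth inhibition vs negative control. Incubation: L1210 2 d, CEM 3 d, HeLa 4 d. Suspension density before mixing with an equal volume of dilution: 300,000–500,000 cells/mL.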"}, "MRSA KS89": {"system": "MRSA KS89", "test": "MIC, broth microdilution, MRSA KS89", "assay_type": "cell-based, Staphylococcus aureus", "in_short": "as §1"}, "[2]": {"system": "human cervix carcinoma (HeLa) cells", "test": "Cytostatic activity, HeLa cell proliferation", "assay_type": "cell-based", "conditions": "mean ± SD of three experiments; highest concentration tested 250 µM; 4 days; read-out: Toxicity (IC50) HeLa", "in_short": "as §2"}, "MRSA KS1": {"system": "MRSA KS1", "test": "MIC, broth microdilution, MRSA KS1", "assay_type": "cell-based, Staphylococcus aureus", "in_short": "as §1"}, "E. faecalis VRE 37": {"system": "E. faecalis VRE 37", "test": "MIC, broth microdilution, vancomycin-resistant E. faecalis VRE 37 (VanA)", "assay_type": "cell-based, Enterococcus faecalis", "in_short": "as §1"}, "MRSA KS2": {"system": "MRSA KS2", "test": "MIC, broth microdilution, MRSA KS2", "assay_type": "cell-based, Staphylococcus aureus", "in_short": "as §1"}, "B. subtilis PSB3": {"system": "B. subtilis PSB3", "test": "MIC, broth microdilution, B. subtilis PSB3", "assay_type": "cell-based, Bacillus subtilis", "protocol": "(§3) The minimum inhibitory concentration (MIC) was determined using the broth microdilution method according to the antimicrobial susceptibility testing standards of the clinical and laboratory standards institute ([Clinical and Laboratory Standards Institute [CLSI], 2012]). Ultrapure water and non-inoculated broth were used as controls. In one case, a final concentration of 10 μM vancomycin was included with the vancomycin analog or control antibiotic."}, "MRSA KS6": {"system": "MRSA KS6", "test": "MIC, broth microdilution, MRSA KS6", "assay_type": "cell-based, Staphylococcus aureus", "in_short": "as §1"}, "[3]": {"system": "L1210, CEM and HeLa cell lines", "test": "Cytostatic activity, average or summary over L1210, CEM and HeLa", "assay_type": "cell-based", "in_short": "as §2"}, "[4]": {"system": "S. aureus VSSA (ATCC 6538)", "test": "MIC, broth microdilution, vancomycin-sensitive S. aureus (VSSA/MSSA, ATCC 6538)", "assay_type": "cell-based, Staphylococcus aureus", "in_short": "as §1"}, "S. aureus VISA/HIP5827": {"system": "S. aureus VISA/HIP5827", "test": "MIC, broth microdilution, vancomycin-intermediate S. aureus VISA HIP5827", "assay_type": "cell-based, Staphylococcus aureus", "in_short": "as §1"}, "E. faecalis VRE 29": {"system": "E. faecalis VRE 29", "test": "MIC, broth microdilution, vancomycin-resistant E. faecalis VRE 29 (VanA)", "assay_type": "cell-based, Enterococcus faecalis", "in_short": "as §1"}, "[5]": {"system": "Murine leukemia (L1210) cells", "test": "Cytostatic activity, L1210 cell proliferation", "assay_type": "cell-based", "conditions": "mean ± SD of three experiments; highest concentration tested 250 µM; 2 days; read-out: Toxicity (IC50) L1210", "in_short": "as §2"}, "E. faecalis VRE 53": {"system": "E. faecalis VRE 53", "test": "MIC, broth microdilution, vancomycin-resistant E. faecalis VRE 53 (VanA)", "assay_type": "cell-based, Enterococcus faecalis", "conditions": "for MIC: read-out: MIC", "in_short": "as §1"}, "E. coli XL-1 blue MRF'": {"system": "E. coli XL-1 blue MRF'", "test": "MIC, broth microdilution, E. coli XL-1 blue MRF'", "assay_type": "cell-based, Escherichia coli", "conditions": "E. coli XL-1 blue MRF'", "protocol": "as §3"}, "[6]": {"conditions": "ratio of MIC of vancomycin and MIC of analogue"}}, "note": "Like-named read-outs stand apart in the source and are kept apart here.", "data": [{"smiles": "C#Cc1ccc(/C=C/C(=O)NCCNC(=O)[C@H]2NC(=O)[C@H]3NC(=O)[C@H](NC(=O)[C@@H]4NC(=O)[C@H](CC(N)=O)NC(=O)[C@H](NC(=O)[C@@H](CC(C)C)NC)[C@H](O)c5ccc(c(Cl)c5)Oc5cc4cc(c5O[C@@H]4O[C@H](CO)[C@@H](O)[C@H](O)[C@H]4O[C@H]4C[C@](C)(N)[C@H](O)[C@H](C)O4)Oc4ccc(cc4Cl)[C@H]3O)c3ccc(O)c(c3)-c3c(O)cc(O)cc32)cc1", "note": "[Vanc-Q]", "values": [{"measurement": "MICvanc/MICi", "setting": "E. faecalis VRE 6; E. faecalis VRE 6, ratio of MIC of vancomycin and MIC of analogue", "result": 32}, {"measurement": "MIC", "setting": "E. faecalis VRE 6; E. faecalis VRE 6", "result": 6.25, "unit": "µM"}, {"measurement": "MIC", "setting": "E. faecalis VRE 6; Enterococcus faecalis VRE 6 (vancomycin-resistant)", "result": 6.25, "unit": "µM"}, {"measurement": "MIC-fold improvement vs. vancomycin", "setting": "E. faecalis VRE 6; VRE 6, ratio of MIC of vancomycin and MIC of analogue", "result": 32}, {"measurement": "MIC", "setting": "S. aureus VRSA; Staphylococcus aureus VRSA, read-out: MIC", "result": 12.5, "unit": "µM"}, {"measurement": "MIC-fold improvement vs. vancomycin", "setting": "S. aureus VRSA; VRSA, ratio of MIC of vancomycin and MIC of analogue", "result": 8}, {"measurement": "MICvanc/MICi", "setting": "E. faecalis VSE 1; E. faecalis VSE 1, ratio of MIC of vancomycin and MIC of analogue", "result": 16}, {"measurement": "MIC", "setting": "E. faecalis VSE 1; E. faecalis VSE 1", "result": 0.10, "unit": "µM"}, {"measurement": "MIC", "setting": "E. faecalis VSE 1; Enterococcus faecalis VSE 1 (vancomycin-sensitive)", "result": 0.10, "unit": "µM"}, {"measurement": "MIC-fold improvement vs. vancomycin", "setting": "E. faecalis VSE 1; VSE 1, ratio of MIC of vancomycin and MIC of analogue", "result": 16}, {"measurement": "IC50", "setting": "[1]", "result": "> 250", "unit": "µM"}, {"measurement": "MIC-fold improvement vs. vancomycin", "setting": "MRSA KS89; MRSA KS8, ratio of MIC of vancomycin and MIC of analogue", "result": 1}, {"measurement": "MIC", "setting": "MRSA KS89; Staphylococcus aureus MRSA KS8, read-out: MIC", "result": 0.78, "unit": "µM"}, {"measurement": "IC50", "setting": "[2]", "result": "> 250", "unit": "µM"}, {"measurement": "MIC-fold improvement vs. vancomycin", "setting": "MRSA KS1; MRSA KS1, ratio of MIC of vancomycin and MIC of analogue", "result": 2}, {"measurement": "MIC", "setting": "MRSA KS1; Staphylococcus aureus MRSA KS1, read-out: MIC", "result": 0.39, "unit": "µM"}, {"measurement": "MIC", "setting": "E. faecalis VRE 37; Enterococcus faecalis VRE 37 (vancomycin-resistant), read-out: MIC", "result": 50, "unit": "µM"}, {"measurement": "MIC-fold improvement vs. vancomycin", "setting": "E. faecalis VRE 37; VRE 37, ratio of MIC of vancomycin and MIC of analogue", "result": 16}, {"measurement": "MIC-fold improvement vs. vancomycin", "setting": "MRSA KS2; MRSA KS2, ratio of MIC of vancomycin and MIC of analogue", "result": 0.5}, {"measurement": "MIC", "setting": "MRSA KS2; Staphylococcus aureus MRSA KS2, read-out: MIC", "result": 1.56, "unit": "µM"}, {"measurement": "MIC", "setting": "B. subtilis PSB3", "result": 0.39, "unit": "µM"}, {"measurement": "MICvanc/MICi", "setting": "B. subtilis PSB3; [6]", "result": 1}, {"measurement": "MIC-fold improvement vs. vancomycin", "setting": "MRSA KS6; MRSA KS6, ratio of MIC of vancomycin and MIC of analogue", "result": 1}, {"measurement": "MIC", "setting": "MRSA KS6; Staphylococcus aureus MRSA KS6, read-out: MIC", "result": 0.78, "unit": "µM"}, {"measurement": "IC50", "setting": "[3]; average of L1210, CEM and HeLa, read-out: Toxicity (IC50) Average", "result": "> 250", "unit": "µM"}, {"measurement": "IC50", "setting": "[3]; summary over the three cell lines, read-out: IC50 (L1210, CEM, HeLa), depending on the cell line used", "result": "> 250", "unit": "µM"}, {"measurement": "MIC", "setting": "[4]; Staphylococcus aureus VSSA, read-out: MIC", "result": 0.20, "unit": "µM"}, {"measurement": "MIC-fold improvement vs. vancomycin", "setting": "[4]; VSSA, ratio of MIC of vancomycin and MIC of analogue", "result": 4}, {"measurement": "MIC", "setting": "S. aureus VISA/HIP5827; Staphylococcus aureus VISA/HIP5827, read-out: MIC", "result": 1.56, "unit": "µM"}, {"measurement": "MIC-fold improvement vs. vancomycin", "setting": "S. aureus VISA/HIP5827; VISA/HIP5827, ratio of MIC of vancomycin and MIC of analogue", "result": 4}, {"measurement": "MIC", "setting": "E. faecalis VRE 29; Enterococcus faecalis VRE 29 (vancomycin-resistant), read-out: MIC", "result": 25, "unit": "µM"}, {"measurement": "MIC-fold improvement vs. vancomycin", "setting": "E. faecalis VRE 29; VRE 29, ratio of MIC of vancomycin and MIC of analogue", "result": 16}, {"measurement": "IC50", "setting": "[5]", "result": "> 250", "unit": "µM"}, {"measurement": "MICvanc/MICi", "setting": "E. faecalis VRE 53; E. faecalis VRE 53, ratio of MIC of vancomycin and MIC of analogue", "result": 64}, {"measurement": "MIC", "setting": "E. faecalis VRE 53; E. faecalis VRE 53", "result": 6.25, "unit": "µM"}, {"measurement": "MIC", "setting": "E. faecalis VRE 53; Enterococcus faecalis VRE 53 (vancomycin-resistant)", "result": 6.25, "unit": "µM"}, {"measurement": "MIC-fold improvement vs. vancomycin", "setting": "E. faecalis VRE 53; VRE 53, ratio of MIC of vancomycin and MIC of analogue", "result": 64}, {"measurement": "MIC", "setting": "E. coli XL-1 blue MRF'", "result": 12.5, "unit": "µM"}, {"measurement": "MICvanc/MICi", "setting": "E. coli XL-1 blue MRF'; [6]", "result": 8}]}]}
